The source made the active and inactive calls. No cut-off for these calls is given here.
How the values were obtained:
Dipeptidyl peptidase 2 = Dipeptidyl peptidase 2 (Rattus norvegicus, UniProt Q9EPB1); test: Inhibition of rat kidney DDP2 after 60 mins by spectrophotometry
Dipeptidyl peptidase 8 = Dipeptidyl peptidase 8 (Homo sapiens, UniProt Q6V1X1); test: Inhibition of human DDP8 expressed in HEK293-F cells after 90 mins by spectrophotometry; format: cell-based
Canis familiaris [1] = test: Ex vivo inhibition of DDP4 in dog plasma at 0.5 mg/kg, po after 24 hrs; format: functional; settings: Canis lupus familiaris
[2] = Mean residence time in rat at 1 mg/kg, po by LC/MS/MS analysis; format: ADME, organism-based; design: dose 1 mg/kg, route oral; settings: in vivo
[3] = Mean residence time in dog at 1 mg/kg, po by LC/MS/MS analysis; format: ADME, organism-based, Canis lupus familiaris; design: dose 1 mg/kg, route oral; settings: in vivo
[4] = Bioavailability in rat at 0.1 mg/kg, iv and 1 mg/kg, po by LC/MS/MS analysis; format: ADME, organism-based; settings: in vivo
[5] = Bioavailability in dog at 0.1 mg/kg, iv and 1 mg/kg, po by LC/MS/MS analysis; format: ADME, organism-based, Canis lupus familiaris; settings: in vivo
[6] = Metabolic stability in rat hepatic microsomes assessed per mg of protein at 1 uM; format: ADME, Liver
[7] = Metabolic stability in dog hepatic microsomes assessed per mg of protein at 1 uM; format: ADME, Canis lupus familiaris, Liver
[8] = Metabolic stability in human hepatic microsomes assessed per mg of protein at 1 uM; format: ADME, Liver
[9] = Solubility of the compound at pH 1.2 after 2 hrs; format: physicochemical; settings: buffer
[10] = Solubility of the compound at pH 6.8 after 2 hrs; format: physicochemical; settings: buffer
Canis familiaris [11] = species: Canis familiaris; settings: Canis lupus familiaris; Plasma; 0.5 mg/kg
Description: Ex vivo inhibition of DDP4 in dog plasma at 0.5 mg/kg, po up to 1 hr

Sequence of Dipeptidyl peptidase 2 (Q9EPB1 whole entry): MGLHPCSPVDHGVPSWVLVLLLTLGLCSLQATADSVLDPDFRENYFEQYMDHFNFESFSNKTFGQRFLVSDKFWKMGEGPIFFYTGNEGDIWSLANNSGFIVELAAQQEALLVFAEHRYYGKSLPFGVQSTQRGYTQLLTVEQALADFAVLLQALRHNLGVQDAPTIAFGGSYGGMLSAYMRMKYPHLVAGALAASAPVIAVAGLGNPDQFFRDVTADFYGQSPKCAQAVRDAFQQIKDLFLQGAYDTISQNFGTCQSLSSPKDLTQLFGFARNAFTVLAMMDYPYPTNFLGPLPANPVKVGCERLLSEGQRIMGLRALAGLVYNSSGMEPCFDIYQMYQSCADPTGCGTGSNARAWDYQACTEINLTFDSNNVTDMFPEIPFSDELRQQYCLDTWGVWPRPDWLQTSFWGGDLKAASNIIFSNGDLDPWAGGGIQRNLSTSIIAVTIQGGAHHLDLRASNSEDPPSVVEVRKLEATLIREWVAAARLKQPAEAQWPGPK
Sequence of Dipeptidyl peptidase 8 (Q6V1X1 whole entry): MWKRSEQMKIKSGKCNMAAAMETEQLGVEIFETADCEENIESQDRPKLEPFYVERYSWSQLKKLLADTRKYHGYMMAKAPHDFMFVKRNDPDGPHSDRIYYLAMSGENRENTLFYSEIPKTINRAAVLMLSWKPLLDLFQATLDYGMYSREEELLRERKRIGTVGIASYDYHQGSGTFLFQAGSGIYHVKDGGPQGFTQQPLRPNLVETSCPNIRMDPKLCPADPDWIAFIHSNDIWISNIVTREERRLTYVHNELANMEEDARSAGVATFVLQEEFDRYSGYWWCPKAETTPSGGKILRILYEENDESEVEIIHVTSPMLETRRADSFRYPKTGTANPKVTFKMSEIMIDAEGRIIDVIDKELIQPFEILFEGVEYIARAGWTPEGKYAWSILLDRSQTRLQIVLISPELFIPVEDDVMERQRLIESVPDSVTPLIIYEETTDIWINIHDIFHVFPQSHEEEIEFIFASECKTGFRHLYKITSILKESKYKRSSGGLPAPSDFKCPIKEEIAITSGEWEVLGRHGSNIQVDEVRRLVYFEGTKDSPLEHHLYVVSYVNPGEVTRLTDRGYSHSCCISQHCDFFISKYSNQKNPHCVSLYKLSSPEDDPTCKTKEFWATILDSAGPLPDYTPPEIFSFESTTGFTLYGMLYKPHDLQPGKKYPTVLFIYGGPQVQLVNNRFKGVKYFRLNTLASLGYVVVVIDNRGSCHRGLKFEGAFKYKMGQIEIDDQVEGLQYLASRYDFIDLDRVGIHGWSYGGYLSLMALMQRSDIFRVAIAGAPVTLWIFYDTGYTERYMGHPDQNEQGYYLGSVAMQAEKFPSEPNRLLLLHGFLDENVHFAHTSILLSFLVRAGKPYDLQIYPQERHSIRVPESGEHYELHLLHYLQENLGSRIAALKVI

## Cc1ccc(-c2c(CC(=O)N3CCC[C@H]3C(N)=O)c(C)nc(CC(C)C)c2CN)cc1.Cl.Cl
Dipeptidyl peptidase 2
  IC50: > 100 µM
Dipeptidyl peptidase 8
  IC50: > 30 µM
Canis familiaris [1]
  inhibition in vivo at 0.5 mg/kg: 90%
[2]
  MRT: 11.2 h
[3]
  MRT: 4.35 h
[4]
  bioavailability: 4.9%
[5]
  bioavailability: 21.3%
[6]
  Stability: < 1 µL/min
[7]
  Stability: 2 µL/min
[8]
  Stability: 4 µL/min
[9]
  solubility at 2 h: 86 µg/mL
[10]
  solubility at 2 h: 71 µg/mL
Canis familiaris [11]
  inhibition: Active

From ChEMBL document CHEMBL1641432, “Design and synthesis of 3-pyridylacetamide derivatives as dipeptidyl peptidase IV (DPP-4) inhibitors targeting a bidentate interaction with Arg125” (Bioorg Med Chem, 2011)
